# Assay results reported in the METLIN SMRT retention time set (Domingo-Almenara et al. 2019).
# Assay: gradient 5% acetonitrile 3 min, to 50% in 2 min, to 85% in 15 min, held 3 min, 100 µL/min
# Settings: column: Zorbax Extend-C18 2.1 x 50 mm; eluents: water / acetonitrile, 0.1% formic acid
# Method in brief: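 Using water and acetonitrile that each contained 0.1% formic acid, mixtures of ~100 pure standards were separated at 100 μL/min on a Zorbax Extend-C18 column (2.1 × 50 mm, 1.8 μm). The HPLC fed a quadrupole time-of-flight mass spectrometer working in positive and negative ionization mode, with dead and dwell volumes of 40 μL and 900 μL. Data were acquired over 3 months. Retention time was read from computationally picked adduct peaks after manual inspection of each.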
row,RP-LC retention time [s],SMILES
1,911,Cn1c(=O)sc2cc(S(=O)(=O)N3CCC(C(=O)NCCC4=CCCCC4)CC3)ccc21
2,819,CCSc1ccc(Cc2nnc(NC(=O)c3ccc(S(=O)(=O)N(C)C)cc3)o2)cc1
3,860,O=C(NCCC1CCN(C(=O)Nc2cc(F)cc(F)c2)CC1)C1CCCC1
4,774,CC(C)c1noc(COC2CCCN(C(=O)NCc3ccco3)C2)n1 (stereo not given)
5,922,Cc1nc(-c2cn(C)c3ncccc23)sc1C(=O)Nc1ccccc1F
6,852,CCCNC(=O)CCc1nc2ccccc2n(CC(=O)Nc2ccc(CC)cc2)c1=O
7,921,COc1ccc(Cl)cc1S(=O)(=O)N1CCC(C(=O)Nc2ccccc2F)CC1
8,625,O=C1NCCCCCCN(C(=O)c2cn[nH]c2)[C@H]2CCC[C@@H]12
9,1120,CCCN1C(=O)c2cc(S(=O)(=O)Nc3ccc(C)c(F)c3)ccc2Oc2cccnc21
10,618,COCc1c(C(=O)N2CCC3(CCC3O)CC2)noc1C (stereo not given)
11,674,Cc1cc(C)cc(NC(=O)Cn2nc3n(c2=O)CCCC3)c1
12,606,Cc1nnc2n1CCN(C(=O)c1ccc(OC(F)(F)F)cc1)C2
13,972,COC(=O)c1cccc(NC(=O)N2CCC(c3nc(C(=O)N(C)C)c(C)o3)CC2)c1
14,870,COc1ccc(-c2noc(Cn3ccn(-c4c(C)cccc4C)c(=O)c3=O)n2)cc1
15,639,Cc1cccc(-c2nc3ccccn3c2NC(=O)NC2CCCC2)c1
16,841,CC(C)NC(=O)N(C)CCc1noc(COc2ccc(Cl)cc2)n1
17,725,CCOc1ccc(NC(=O)C2CCN(C(=O)C3Sc4ccccc4NC3=O)CC2)cc1 (stereo not given)
18,916,CC(C)c1ccc(-c2cc3c4nn(CC(=O)N5CCCC5)c(=O)n4ccn3n2)cc1
19,554,CS(=O)(=O)N1C[C@@H](COc2cccnc2)[C@H](c2ccccn2)C1
20,636,CCc1ccc(-n2c(CN3CCN(C(=O)NCC4CCCO4)CC3)nc3cccnc32)cc1 (stereo not given)
21,1000,Cc1ccc(C)c(N2CCN(c3ccnc(SCC(=O)Nc4cccc(C)c4C)n3)CC2)c1
22,595,CCOC(=O)C1=C(CN2CCN(C)CC2)NC(=O)NC1c1cccc(OC)c1OC (stereo not given)
23,853,Cc1nn2c(CNS(=O)(=O)c3ccccc3Cl)c(-c3ccccc3)nc2s1

row,RP-LC retention time [s],SMILES
1,566,Cc1ccccc1OCC(O)CN1CCN(Cc2ccc3c(c2)OCO3)CC1 (stereo not given)
2,728,CN(C)C(CNC(=O)c1cc(-c2ccc(Cl)cc2)on1)c1cccs1 (stereo not given)
3,715,Cc1cc(C)n(CC(=O)N2CCCCCCNC(=O)[C@@H]3CCCC[C@@H]32)n1
4,915,Cc1noc(-c2ccnc(-n3cnc(C(=O)NC4CCCCCC4)c3)c2)n1
5,617,Cc1nnsc1C(=O)N1CCC(c2nnc(-c3ccco3)o2)CC1
6,844,COc1ccc2[nH]cc(CCN3CC(C(=O)Nc4ccc(Br)cc4)CC3=O)c2c1 (stereo not given)
7,1260,CCCCn1c(=O)c2ccccc2n(Cc2nc(-c3ccc(C(F)(F)F)cc3)no2)c1=O
8,690,Cc1cccc(NC(=O)Nc2ccc3nncn3c2)c1
9,587,Cc1ccc(CS(=O)Cc2ccc(C(=O)NCCN(C)C)o2)cc1 (stereo not given)
10,899,CCC(C)NC(=O)c1nccnc1NC(=O)c1ccccc1 (stereo not given)
11,663,COc1cccc(CNC(=O)c2cc3c(=O)n(C)ccc3n2C)c1
12,889,O=C(NCCc1csc(-c2cccs2)n1)C1CCN(S(=O)(=O)c2ccccc2)CC1
13,586,Cc1ccc(-c2nc3cnccn3c2NCCC(=O)NC(C)c2ccccn2)cc1 (stereo not given)
14,610,COC(=O)[C@H](Cc1cccc(C(=N)N)c1)[C@@H](C)NC(=O)c1ccc(-c2cc[n+]([O-])cc2)cc1
15,599,CCc1cc(=O)n(CC(=O)Nc2ccc(F)cc2C)c(N)n1
16,836,C=CCN1C(=O)COc2ccc(-c3nc(NC(=O)COC)sc3C)cc21
17,606,COc1ccc(C)cc1Nc1nc(N)nc(CN2CCN(c3ccccn3)CC2)n1
18,829,O=C(NCc1ccc2c(c1)CCN2C(=O)c1ccccc1)C1CCN(S(=O)(=O)N2CCCC2)CC1
19,621,Cc1ccc(C(=O)N2C[C@@H](F)C[C@H]2C(=O)N2CCOCC2)cc1
20,756,CCCN1C(=O)c2c(C(=O)NCc3ccccc3)ncn2CC1(C)C(=O)NC1CCCC1 (stereo not given)
21,568,C=CCNC(=O)c1ccc2[nH]c(C)c(C)c2c1
22,594,O=C(c1ccc2nc[nH]c2c1)N1CCN(c2cc(-c3cccs3)[nH]n2)CC1
23,716,CCC1CCCCN1C(=O)c1cnc2nc(C)ccc2c1Nc1ccc(C)c(F)c1 (stereo not given)

row,RP-LC retention time [s],SMILES
1,886,Cc1ccc(C(=O)NC2(c3nc(C)no3)CCCCC2)cc1
2,724,CS(=O)(=O)N1CCC(OC2CCN(C(=O)NCCc3ccccc3)CC2)CC1
3,790,CC1=C(c2ccccc2)S(=O)(=O)N=C1N1CCC(NC(=O)NCC(C)C)CC1
4,710,O=C(NCC(O)(c1ccccc1)C(F)(F)F)c1cnccn1 (stereo not given)
5,694,CCc1ccc2nc(NC3=NCN(CCCOC)CN3)nc(C)c2c1
6,1080,CCOC(=O)N1CCN(c2nc(-c3cccc([N+](=O)[O-])c3)cs2)CC1
7,671,COc1cccc(S(=O)(=O)N2CCCN(C3CCN(Cc4ccccc4)C3=O)CC2)c1 (stereo not given)
8,604,CC(=O)c1ccc(NC(=O)CC(C)n2cncn2)cc1 (stereo not given)
9,693,CC(C)Cc1ccc(S(=O)(=O)N2CCc3nc[nH]c3C2)cc1
10,587,Cc1noc(C)c1C(=O)N1CCCn2ccnc2C1C1CCCC1 (stereo not given)
11,660,CCCNc1nnc(-c2nc(C3CC3)no2)c2ccccc12
12,696,CCCNC(=O)c1cc(-c2ccncc2)cn1Cc1ccc(C)cc1
13,918,Cc1cc(C)n(-c2ccc(C(=O)NC3CCCCC3)cn2)n1
14,603,CC(C)CNC(=O)N1C[C@@H]2CCCN3CCC[C@@H]([C@H]23)[C@H]1CCCC(=O)NCC1CC1
15,638,O=C1/C(=C\c2ccc(O)c(O)c2)Oc2c1ccc(O[C@@H]1O[C@H](CO)[C@@H](O)[C@H](O)[C@H]1O)c2O
16,669,COCCNC(=O)Cc1csc(SCC(=O)c2cccs2)n1
17,602,O=C(C1CCN(c2nnc(-c3ccccc3)o2)CC1)N1CCN(c2ccccn2)CC1
18,959,Cc1ccc(S(=O)(=O)N2CC(=O)N(c3ccccc3F)C(C)(C(=O)NC3CCCC3)C2)cc1 (stereo not given)
19,1030,CC1(C)CC(=O)c2cn(-c3ccccc3)c(=O)c(C(=O)Nc3cccc(C#N)c3)c2C1
20,672,CCC(=O)Nc1ccc2c(c1)CN(C(=O)c1ccccc1F)C(C(=O)N1CCCC1)C2 (stereo not given)
21,600,CCOCC(=O)N1CC(c2nc(CCOC)no2)C1
22,685,CC(C)N1CCN(Cc2ccc(C(=O)NCc3ccccc3)cc2)C(=O)C1=O
23,691,O=C(c1cccs1)N1CCN(c2nnc3ccc(Cl)cn23)CC1

row,RP-LC retention time [s],SMILES
1,740,CCOc1nccnc1NC1CCN(C(=O)Cc2cccs2)CC1
2,836,Cc1ccc(C)c(C(=O)N2C[C@H](c3nc(-c4cccnc4)no3)[C@@H](C)C2)c1
3,706,Cc1cc(C(=O)N2C[C@@H](CO)[C@H](c3nc(C4CC4)no3)C2)c(C)o1
4,572,CCOC(=O)C1CCN(Cc2nc(-c3ccc(N4CCCC4)nc3)no2)CC1
5,796,CN(C)CC1CCC/C(=C\c2ccc(OC(=O)/C=C/c3ccccc3)cc2)C1=O (stereo not given)
6,681,COc1ccc2[nH]c(=O)c(CCC(=O)NCCOc3ccccc3OC)cc2c1
7,668,CC(=O)c1cccc(NC(=O)C2CC(=O)N(c3ccc4c(c3)CCN4C(C)=O)C2)c1 (stereo not given)
8,804,O=C(OCCCNc1nc(-c2ccc(Cl)cc2)nc2ccccc12)c1cccs1
9,897,Cc1ccc(CCNC(=O)C2CCCN(c3ncnc4c3nc3n4CCCCC3)C2)cc1 (stereo not given)
10,585,COc1cc(CN2C[C@@H]3C(=O)N(C)C(=O)[C@@H]3C2)cc(OC)c1
11,761,O=C(CN1C(=O)C2CCCCN2c2ccc(S(=O)(=O)N3CCCC3)cc21)NC1CCCC1 (stereo not given)
12,679,CCOC(=O)C1CCN(S(=O)(=O)c2cc3n(c2)CCCN(CC)C3=O)CC1
13,790,CC(C)CCNC(=O)C1CCN(c2cnn(Cc3ccccc3)c(=O)c2)CC1
14,609,O=C(c1ccsc1)N1CC(n2cc(C(=O)N3CCOCC3)nn2)C1
15,637,CCOC(=O)CNC(=O)N1CCc2c(c(C(=O)N3CCCC3)nn2C)C1
16,1120,CSc1ccc(C2c3[nH]c4ccccc4c3CCN2C(=O)C2CC2)cc1 (stereo not given)
17,779,COc1cc2nc(C(=O)N3CCCCC3)cc(Nc3ccc(Br)c(C)c3)c2cc1OC
18,861,CCn1cnc2ccc(-c3noc(-c4cccc(Cl)c4)n3)cc21
19,620,O=C(c1ccncc1)N1CC(C(=O)N2CCSCC2)C2(CCCCC2)C1 (stereo not given)
20,758,COc1ccc2[nH]c(C(=O)N3CCN(C(=O)Cc4cccs4)CC3)cc2c1
21,667,COc1ccc(OC)c(NC(=O)N2CCN(c3cc(-c4ccccc4)ncn3)CC2)c1
